According to patent US11767322B2 (BRISTOL-MYERS SQUIBB COMPANY, priority 2020, dated 2023):
Where two headings read alike, the source gives them in different places.

Experiments:
[1] = tested on: MLKL phosphorylation in HT29-L23 human colorectal adenocarcinoma cells; assay: MLKL phosphorylation high-content assay; format: cell-based
[2] = biological target: T1, His-GST-TVMV-hRIPK1(1-324) (Homo sapiens, UniProt Q13546); assay: biochemical; format: binding
T1 construct: The coding region of human RIPK1(1-324) flanked by NdeI site at 5′ end; made in house; host or cells: Spodoptera frugiperda Sf9 insect cells (baculovirus, Bac-to-Bac)
T1 sequence (Q13546 1-324): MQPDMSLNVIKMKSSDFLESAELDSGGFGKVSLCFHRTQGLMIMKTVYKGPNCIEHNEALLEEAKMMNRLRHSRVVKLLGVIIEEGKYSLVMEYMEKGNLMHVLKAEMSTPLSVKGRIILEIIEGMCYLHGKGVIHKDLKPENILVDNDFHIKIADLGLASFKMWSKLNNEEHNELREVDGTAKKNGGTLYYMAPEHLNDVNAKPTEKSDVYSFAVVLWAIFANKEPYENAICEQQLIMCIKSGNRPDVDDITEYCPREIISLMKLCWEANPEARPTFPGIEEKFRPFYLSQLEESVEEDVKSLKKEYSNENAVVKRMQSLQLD

[3] = biological target: GST-tagged PIK3Cδ in complex with PIK3R1 (Homo sapiens, UniProt O00329); assay: PI3Kδ HTRF binding assay; details: read-out: PIK3CD IC50
GST-tagged PIK3Cδ in complex with PIK3R1, sequence (O00329 whole entry): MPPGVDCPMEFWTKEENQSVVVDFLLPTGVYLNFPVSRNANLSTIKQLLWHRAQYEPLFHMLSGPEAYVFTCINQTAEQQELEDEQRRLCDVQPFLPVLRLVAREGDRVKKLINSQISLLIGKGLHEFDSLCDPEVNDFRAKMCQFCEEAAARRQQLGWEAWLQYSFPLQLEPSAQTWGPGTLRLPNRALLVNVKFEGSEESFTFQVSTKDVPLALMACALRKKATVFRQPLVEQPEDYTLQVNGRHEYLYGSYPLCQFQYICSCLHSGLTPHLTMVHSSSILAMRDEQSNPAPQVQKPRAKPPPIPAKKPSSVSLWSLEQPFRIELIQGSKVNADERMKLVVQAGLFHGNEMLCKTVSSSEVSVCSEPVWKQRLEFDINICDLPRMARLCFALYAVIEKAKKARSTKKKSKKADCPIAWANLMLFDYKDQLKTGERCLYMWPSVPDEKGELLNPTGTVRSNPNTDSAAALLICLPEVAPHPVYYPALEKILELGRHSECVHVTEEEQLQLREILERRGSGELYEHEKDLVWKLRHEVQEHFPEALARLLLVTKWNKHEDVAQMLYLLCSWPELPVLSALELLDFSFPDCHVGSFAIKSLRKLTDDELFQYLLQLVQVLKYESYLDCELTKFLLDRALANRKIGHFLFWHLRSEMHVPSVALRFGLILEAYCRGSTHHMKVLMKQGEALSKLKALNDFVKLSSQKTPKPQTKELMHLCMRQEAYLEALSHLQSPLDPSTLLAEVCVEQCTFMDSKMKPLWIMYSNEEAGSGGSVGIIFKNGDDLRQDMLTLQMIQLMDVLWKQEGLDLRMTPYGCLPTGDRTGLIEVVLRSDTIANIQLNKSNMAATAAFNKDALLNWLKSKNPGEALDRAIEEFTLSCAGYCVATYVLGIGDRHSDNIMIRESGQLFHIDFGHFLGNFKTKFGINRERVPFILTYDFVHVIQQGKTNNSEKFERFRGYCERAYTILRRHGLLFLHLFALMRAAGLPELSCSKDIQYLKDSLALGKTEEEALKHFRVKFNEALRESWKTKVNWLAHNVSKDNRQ
GST-tagged PIK3Cδ in complex with PIK3R1, sequence (P27986 whole entry partner): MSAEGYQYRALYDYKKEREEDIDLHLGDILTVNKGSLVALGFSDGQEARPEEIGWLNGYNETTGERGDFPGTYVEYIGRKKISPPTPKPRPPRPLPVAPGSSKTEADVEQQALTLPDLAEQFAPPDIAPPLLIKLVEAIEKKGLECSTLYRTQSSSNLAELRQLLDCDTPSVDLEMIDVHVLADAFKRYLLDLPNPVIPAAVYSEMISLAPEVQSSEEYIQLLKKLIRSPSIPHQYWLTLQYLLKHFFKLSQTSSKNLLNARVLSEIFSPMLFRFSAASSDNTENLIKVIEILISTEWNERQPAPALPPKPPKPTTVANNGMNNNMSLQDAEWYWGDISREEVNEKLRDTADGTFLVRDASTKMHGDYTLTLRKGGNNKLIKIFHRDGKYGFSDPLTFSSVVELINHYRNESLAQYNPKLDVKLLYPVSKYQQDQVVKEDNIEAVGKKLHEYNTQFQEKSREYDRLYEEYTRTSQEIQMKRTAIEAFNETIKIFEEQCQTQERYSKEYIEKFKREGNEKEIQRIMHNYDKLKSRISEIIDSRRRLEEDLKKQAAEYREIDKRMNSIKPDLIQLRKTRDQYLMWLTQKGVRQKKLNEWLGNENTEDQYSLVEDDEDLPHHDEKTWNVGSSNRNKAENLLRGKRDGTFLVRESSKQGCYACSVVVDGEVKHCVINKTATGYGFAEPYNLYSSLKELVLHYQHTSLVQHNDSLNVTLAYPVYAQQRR

[4] = read-out: pMLKL IC50, HT29-L23 cells, necroptosis induced with TNFα, SMAC mimetic and Z-VAD, 6 h, maximal inhibition defined by Nec1s
[5] = HTRF probe displacement, 1 h at rt, read-out: RIPK1 IC50
[6] = HTRF probe displacement, 1 h at rt
[7] = Homo sapiens, 6 h, read-out: pMLKL IC50, HT29-L23 cells, necroptosis induced with TNFα, SMAC mimetic and Z-VAD, 6 h, maximal inhibition defined by Nec1s
[8] = HT29-L23 cells, necroptosis induced with TNFα, SMAC mimetic and Z-VAD, 6 h, maximal inhibition defined by Nec1s, read-out: pMLKL IC50
[9] = Homo sapiens, 6 h, HT29-L23 cells, necroptosis induced with TNFα, SMAC mimetic and Z-VAD, 6 h, maximal inhibition defined by Nec1s, read-out: pMLKL IC50
[10] = Table 22, compounds of the present invention, read-out: pMLKL IC50

Compound	IC50 [2, 5] [nM]	IC50 [3, 6] [nM]	also measured
Nc1nc2cc(-c3ccc(Cl)c(C(=O)NCC(F)(F)C(O)c4ccc(Cl)c(F)c4)c3F)ccn2n1 (stereo not drawn) [Example 191]	2.6	> 15000	IC50 [1, 4]: 1.4 nM
Cc1ccc(-c2ccn3nc(N)nc3c2)c(F)c1C(=O)NCCC(O)c1ccc(Cl)c(Cl)c1 (single isomer, unassigned) [Example 33, 3-(2-amino-[1,2,4]triazolo[1,5-a]pyridin-7-yl)-N-(3-(3,4-dichlorophenyl)-3-hydroxypropyl)-2-fluoro-6-methylbenzamide]	1	> 15000	IC50 [1, 7]: 0.7 nM
Cc1c(F)cc(-c2ccn3nc(N)nc3c2)cc1C(=O)NCCC(C)c1ccccc1 (stereo not drawn) [Example 95, 5-{2-amino-[1,2,4]triazolo[1,5-a]pyridin-7-yl}-3-fluoro-2-methyl-N-(3-phenylbutyl)benzamide]	3	> 15000	IC50 [1, 7]: 5.9 nM
[2H]C([2H])(CC([2H])(O)c1ccc(Cl)cc1)NC(=O)c1c(C)ccc(-c2ccn3nc(N)nc3c2)c1F (single isomer, unassigned) [Example 53, 3-(2-amino-[1,2,4]triazolo[1,5-a]pyridin-7-yl)-N-(3-(4-chlorophenyl)-3-hydroxypropyl-1,1,3-d3)-2-fluoro-6-methylbenzamide]	1.2	14000	IC50 [1, 4]: 0.9 nM
Cc1cc(F)c(-c2ccn3nc(N)nc3c2)cc1C(=O)NCC(F)(F)C(O)c1ccc(F)cc1 (single isomer, unassigned) [Example 98, 5-(2-amino-[1,2,4]triazolo[1,5-a]pyridin-7-yl)-N-(2,2-difluoro-3-(4-fluorophenyl)-3-hydroxypropyl)-4-fluoro-2-methylbenzamide]	2.8	> 15000	IC50 [1, 4]: 1.2 nM
Cc1ccc(-c2ccn3nc(N)nc3c2)c(F)c1C(=O)NCCC(O)C1CCCC1 (stereo not drawn) [Example 248, 3-(2-amino-[1,2,4]triazolo[1,5-a]pyridin-7-yl)-N-(3-cyclopentyl-3-hydroxypropyl)-2-fluoro-6-methylbenzamide]	22	> 15000	IC50 [1, 4]: 20 nM
CCc1ccc(-c2ccn3nc(N)nc3c2)c(F)c1C(=O)NCC[C@@H](O)c1ccc(Cl)cc1 [Example 156, (R)-3-(2-amino-[1,2,4]triazolo[1,5-a]pyridin-7-yl)-N-(3-(4-chlorophenyl)-3-hydroxypropyl)-6-ethyl-2-fluorobenzamide]	5.8	> 15000	IC50 [1, 7]: 0.8 nM
Cc1ccc(-c2ccn3nc(N)nc3c2)c(F)c1C(=O)NCCC(=O)c1ccc(Cl)cc1 [Example 143, 3-{2-amino-[1,2,4]triazolo[1,5-a]pyridin-7-yl}-N-[3-(4-chlorophenyl)-3-oxopropyl]-2-fluoro-6-methylbenzamide]	–	> 15000	IC50 [1, 7]: 2.4 nM
Cc1c(C(=O)NC(CF)CC(O)c2ccc(Cl)cc2)cc(-c2ccn3nc(N)nc3c2)c(F)c1F (racemic) [Example 102, 5-(2-amino-[1,2,4]triazolo[1,5-a]pyridin-7-yl)-N-(4-(4-chlorophenyl)-1-fluoro-4-hydroxybutan-2-yl)-3,4-difluoro-2-methylbenzamide]	–	> 15000	IC50 [1, 8]: 7.6 nM
Cc1c(C(=O)NC(CF)CC(O)c2ccc(Cl)cc2)cc(-c2ccn3nc(N)nc3c2)c(F)c1F (racemic) [Example 103, 5-(2-amino-[1,2,4]triazolo[1,5-a]pyridin-7-yl)-N-(4-(4-chlorophenyl)-1-fluoro-4-hydroxybutan-2-yl)-3,4-difluoro-2-methylbenzamide]	–	> 15000	IC50 [1, 8]: 2060 nM
Nc1nc2cc(-c3c(F)ccc(C(=O)NCC[C@@H](O)c4ccc(Cl)cc4)c3F)ccn2n1 [Example 220, (R)-3-(2-amino-[1,2,4]triazolo[1,5-a]pyridin-7-yl)-N-(3-(4-chlorophenyl)-3-hydroxypropyl)-2,4-difluorobenzamide]	–	> 15000	IC50 [1, 9]: 36 nM
CC(O)(CCNC(=O)c1cc(-c2ccn3nc(N)nc3c2)ccc1Cl)c1ccccc1 (stereo not drawn) [Example 93, 5-(2-amino-[1,2,4]triazolo[1,5-a]pyridin-7-yl)-2-chloro-N-(3-hydroxy-3-phenylbutyl)benzamide]	–	11000	IC50 [1, 9]: 256 nM
Cc1ccc(-c2ccn3nc(N)nc3c2)c(F)c1C(=O)NC(C)CC(O)c1ccc(Cl)cc1 (racemic) [Example 19, 3-(2-amino-[1,2,4]triazolo[1,5-a]pyridin-7-yl)-N-[4-(4-chlorophenyl)-4-hydroxybutan-2-yl]-2-fluoro-6-methylbenzamide]	–	> 15000	IC50 [1, 8]: 7.7 nM; IC50 [1, 10]: 7.7 nM
Cc1c(C(=O)NC(C)CC(O)c2ccc(Cl)cc2)cc(-c2ccn3nc(N)nc3c2)c(F)c1F (racemic) [Example 100, 5-(2-amino-[1,2,4]triazolo[1,5-a]pyridin-7-yl)-N-(4-(4-chlorophenyl)-4-hydroxybutan-2-yl)-3,4-difluoro-2-methylbenzamide]	–	> 15000	IC50 [1, 4]: 27 nM
Cc1cc(Cl)c(-c2ccn3nc(N)nc3c2)cc1C(=O)NCC[C@H](O)c1ccc(Cl)cc1 [Example 144, (S)-5-(2-amino-[1,2,4]triazolo[1,5-a]pyridin-7-yl)-4-chloro-N-(3-(4-chlorophenyl)-3-hydroxypropyl)-2-methylbenzamide]	–	> 15000	IC50 [1, 9]: 4.2 nM
Cc1ccc(-c2ccn3nc(N)nc3c2)c(F)c1C(=O)NCC[C@H](O)c1ccc(C#N)cc1 [Example 139, 3-{2-amino-[1,2,4]triazolo[1,5-a]pyridin-7-yl}-N-[(3S)-3-(4-cyanophenyl)-3-hydroxypropyl]-2-fluoro-6-methylbenzamide]	–	> 15000	IC50 [1, 9]: 7.4 nM
CC(O)(c1ccc(F)cc1)C(F)(F)CNC(=O)c1c(Cl)ccc(-c2ccn3nc(N)nc3c2)c1F (single isomer, unassigned) [Example 89, 3-(2-amino-[1,2,4]triazolo[1,5-a]pyridin-7-yl)-6-chloro-N-(2,2-difluoro-3-(4-fluorophenyl)-3-hydroxybutyl)-2-fluorobenzamide]	7.7	> 15000	–
Nc1nc2cc(-c3ccc(Cl)c(C(=O)NCC(F)(F)C(O)c4cnc(Cl)c(Cl)c4)c3F)ccn2n1 (single isomer, unassigned) [Example 271]	–	11000	IC50 ([2]; RIPK1 IC50): 1.5 nM
CC(CCNC(=O)c1cc(-c2ccn3nc(N)nc3c2)ccc1Cl)c1ccccc1 (stereo not drawn) [Example 92, 5-(2-amino-[1,2,4]triazolo[1,5-a]pyridin-7-yl)-2-chloro-N-(3-phenylbutyl)benzamide]	–	5200	IC50 [1, 9]: 11 nM; IC50 ([1]; Homo sapiens, Table 22, compounds of the present invention, read-out: pMLKL IC50): 11 nM
Nc1nc2cc(-c3c(F)ccc(C(=O)NCC[C@H](O)c4ccc(Cl)cc4)c3F)ccn2n1 [Example 219, (S)-3-(2-amino-[1,2,4]triazolo[1,5-a]pyridin-7-yl)-N-(3-(4-chlorophenyl)-3-hydroxypropyl)-2,4-difluorobenzamide]	–	> 15000	IC50 [1, 9]: 42 nM
Cc1ccc(-c2ccn3nc(N)nc3c2)c(F)c1C(=O)NC(C)CC(O)c1ccc(Cl)cc1 (racemic) [Example 20, 3-(2-amino-[1,2,4]triazolo[1,5-a]pyridin-7-yl)-N-[4-(4-chlorophenyl)-4-hydroxybutan-2-yl]-2-fluoro-6-methylbenzamide]	–	> 15000	IC50 [1, 8]: 3.6 nM; IC50 [1, 10]: 3.6 nM
Cc1cc(F)c(-c2ccn3nc(N)nc3c2)cc1C(=O)NCCC(O)c1ccc(C(F)(F)F)cc1 (single isomer, unassigned) [Example 4, 5-(2-amino-[1,2,4]triazolo[1,5-a]pyridin-7-yl)-4-fluoro-N-(3-hydroxy-3-(4-(trifluoromethyl)phenyl)propyl)-2-methylbenzamide]	–	> 15000	IC50 [1, 4]: 1 nM
Nc1nc2cc(-c3ccc(Cl)c(C(=O)NCC[C@@H](O)c4ccc(Cl)cc4)c3)ccn2n1 [Example 90, (R)-5-(2-amino-[1,2,4]triazolo[1,5-a]pyridin-7-yl)-2-chloro-N-(3-(4-chlorophenyl)-3-hydroxypropyl)benzamide]	–	> 15000	IC50 [1, 9]: 15 nM
COc1c(-c2ccc(C)c(C(=O)NCC[C@H](O)c3ccc(Cl)cc3)c2F)ccn2nc(N)nc12 (single isomer, unassigned; enantiomer 2) [Example 136]	5.9	–	IC50 [3]: > 15000 nM
[2H]C([2H])(CC([2H])(O)c1ccc(Cl)cc1)NC(=O)c1c(F)ccc(-c2ccn3nc(N)nc3c2)c1F (single isomer, unassigned) [Example 251, 3-(2-amino-[1,2,4]triazolo[1,5-a]pyridin-7-yl)-N-(3-(4-chlorophenyl)-3-hydroxypropyl-1,1,3-d3)-2,6-difluorobenzamide]	16	> 15000	–
